This passage reports T/C results from PubChem BioAssay AID330 (DTP/NCI, 2004).

“And” between values parts separate entries of the source, which are not always exact repeats. Equal values may be shown once. Inconclusive results and toxic doses are left out.

For this assay, the system named is P388 leukemia ip, CD2F1 mice, survival T/C. Put plainly: NCI In Vivo Anticancer Drug Screen. Data for tumor model P388 Leukemia (intraperitoneal) in CD2F1 (CDF1) mice. The conditions noted are these: endpoint: median survival time, higher = longer survival. An outline of the steps:
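Mice carrying the transplanted tumor received test compound or vehicle. Survival was recorded in each group, and the value is the treated-group measurement divided by that of the vehicle-treated control group.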

Where [1] appears, read: dose: 50.0 mg/kg/injection, schedule: Q04DX003 (ip), vehicle: saline with Tween-80.
Setting [2] is: dose: 100.0 mg/kg/injection, schedule: Q04DX003 (ip), vehicle: saline with Tween-80.
Setting [3] is: dose: 200.0 mg/kg/injection, schedule: Q04DX003 (ip), vehicle: saline with Tween-80.
The mark [4] stands for this setting: dose: 50.0 mg/kg/injection, schedule: Q01DX005 (ip), vehicle: Klucel (hydroxypropylcellulose) (HPC).
The mark [5] stands for this setting: dose: 100.0 mg/kg/injection, schedule: Q01DX005 (ip), vehicle: Klucel (hydroxypropylcellulose) (HPC).
[6] abbreviates: dose: 200.0 mg/kg/injection, schedule: Q01DX005 (ip), vehicle: Klucel (hydroxypropylcellulose) (HPC).
Where [7] appears, read: dose: 50.0 mg/kg/injection, schedule: Q01DX009 (ip), vehicle: saline.
Where [8] appears, read: dose: 100.0 mg/kg/injection, schedule: Q01DX009 (ip), vehicle: saline.
[9] abbreviates: dose: 200.0 mg/kg/injection, schedule: Q01DX009 (ip), vehicle: saline.
Where [10] appears, read: dose: 400.0 mg/kg/injection, schedule: Q01DX009 (ip), vehicle: saline.
Setting [11] is: dose: 60.0 mg/kg/injection, schedule: Q01DX005 (ip), vehicle: Klucel (hydroxypropylcellulose) (HPC).
Setting [12] is: dose: 120.0 mg/kg/injection, schedule: Q01DX005 (ip), vehicle: Klucel (hydroxypropylcellulose) (HPC).
[13] abbreviates: dose: 50.0 mg/kg/injection, schedule: Q01DX005 (ip), vehicle: saline with Tween-80.
[14] abbreviates: dose: 100.0 mg/kg/injection, schedule: Q01DX005 (ip), vehicle: saline with Tween-80.
Where [15] appears, read: dose: 200.0 mg/kg/injection, schedule: Q01DX005 (ip), vehicle: saline with Tween-80.
[16] abbreviates: dose: 100.0 mg/kg/injection, schedule: Q01DX009 (ip), vehicle: saline with Tween-80.

Regarding `COc1ccc2c(c1O)Oc1c(O)ccc3c1C(C2)N(C)CC3` (configuration not stated), the T/C (dose: 2.5 mg/kg/injection, schedule: Q01DX005 (ip), vehicle: Klucel (hydroxypropylcellulose) (HPC)) was 107 % of control; the T/C (dose: 5.0 mg/kg/injection, schedule: Q01DX005 (ip), vehicle: Klucel (hydroxypropylcellulose) (HPC)) is 100 % of control; the T/C (dose: 10.0 mg/kg/injection, schedule: Q01DX005 (ip), vehicle: Klucel (hydroxypropylcellulose) (HPC)) is 102 % of control; the T/C (dose: 20.0 mg/kg/injection, schedule: Q01DX005 (ip), vehicle: Klucel (hydroxypropylcellulose) (HPC)) is 100 % of control.

`C=CC1CC/C(=C/C)C(=O)O1` (configuration not stated): the T/C by setting is: under setting [1], 103 % of control; under setting [2], 100 % of control; under setting [3], 100 % of control.

In the case of `O=[N+]([O-])c1ccc2c(c1)nc(-c1ccccn1)n2CCc1ccncc1`, the T/C (dose: 25.0 mg/kg/injection, schedule: Q01DX005 (ip), vehicle: Klucel (hydroxypropylcellulose) (HPC)) was 95 % of control; the T/C under setting [4] is 94 % of control; the T/C under setting [5] was 92 % of control; the T/C under setting [6] was 91 % of control.

`COc1ccc(C(=O)Oc2ccc[nH]c2=O)cc1`: the T/C reads like this: under setting [7], 102 % of control and 107 % of control; under setting [8], 99 % of control and 102 % of control; under setting [9], 98 % of control and 102 % of control; under setting [10], 104 % of control and 93 % of control.

Consider `Cc1ccc(S(=O)(=O)NC(CCCNC(=O)OCc2ccccc2)C(=O)O)cc1` (configuration not stated), for which the T/C is 100 % of control under setting [4], 99 % of control under setting [5] and 96 % of control under setting [6].

With `O=C1CCC(N(CC#CCN(C2=NC(=O)CC2)c2ccccc2)c2ccccc2)=N1`, the T/C runs as follows: under setting [11], 103 % of control; under setting [12], 100 % of control; (dose: 240.0 mg/kg/injection, schedule: Q01DX005 (ip), vehicle: Klucel (hydroxypropylcellulose) (HPC)) 97 % of control.

For the compound `Cc1ccc(S(=O)(=O)NC(=O)C#CCOC2CCCCO2)cc1` (configuration not stated), the T/C runs as follows: under setting [13], 103 % of control and 122 % of control; under setting [14], 111 % of control and 112 % of control; under setting [15], 112 % of control and 123 % of control.

For `O=c1ncccn1[C@@H]1O[C@H](CO)[C@H](O)C1O` (some centres not stated), the T/C runs as follows: (dose: 6.25 mg/kg/injection, schedule: Q01DX009 (ip), vehicle: water) 103 % of control; (dose: 12.5 mg/kg/injection, schedule: Q01DX009 (ip), vehicle: water) 104 % of control; (dose: 25.0 mg/kg/injection, schedule: Q01DX009 (ip), vehicle: water) 101 % of control; (dose: 50.0 mg/kg/injection, schedule: Q01DX009 (ip), vehicle: water) 102 % of control; (dose: 100.0 mg/kg/injection, schedule: Q01DX009 (ip), vehicle: water) 108 % of control; under setting [10], 152 % of control.

Take `CCOP(=S)(N1CC1(C)C)N1CC1(C)C` (configuration not stated): the T/C is 109 % of control (dose: 25.0 mg/kg/injection, schedule: Q01DX009 (ip), vehicle: saline); 109 % of control under setting [7]; 154 % of control under setting [16]; 109 % of control under setting [8]; 109 % of control under setting [2]; 172 % of control (dose: 264.0 mg/kg/injection, schedule: Q04DX003 (ip), vehicle: saline with Tween-80). The T/C (dose: 400.0 mg/kg/injection, schedule: Q04DX003 (ip), vehicle: saline with Tween-80) is 168 % of control and 204 % of control.

With `CNC(=S)ON1CCCCC1`, the T/C by setting is: under setting [16], 111 % of control; (dose: 200.0 mg/kg/injection, schedule: Q01DX009 (ip), vehicle: saline with Tween-80) 108 % of control.

Consider `NC(=O)C1CC2(c3ccccn3)c3ccccc3C1c1ccccc12` (configuration not stated), for which the T/C runs as follows: under setting [4], 96 % of control; under setting [5], 90 % of control; under setting [6], 88 % of control.

`CO/N=C/c1ccc[n+](C)c1`: the T/C was 105 % of control under setting [13] and 105 % of control under setting [14].

On to `CCOC(=O)NN(C(=O)OCC)C(=C(C1CCCCC1)N1CCOCC1)N(NC(=O)OCC)C(=O)OCC`, for which the T/C runs as follows: (dose: 50.0 mg/kg/injection, schedule: Q01DX009 (ip), vehicle: Klucel (hydroxypropylcellulose) (HPC)) 95 % of control; (dose: 100.0 mg/kg/injection, schedule: Q01DX009 (ip), vehicle: Klucel (hydroxypropylcellulose) (HPC)) 98 % of control; (dose: 200.0 mg/kg/injection, schedule: Q01DX009 (ip), vehicle: Klucel (hydroxypropylcellulose) (HPC)) 94 % of control.

In the case of `COc1ccc(-n2c(C)csc2=S)cc1`, the T/C is 100 % of control under setting [1], 100 % of control under setting [2] and 95 % of control under setting [3].

With `Nc1cccc(S(=O)(=O)Nc2c(N)[nH]c(=S)[nH]c2=O)c1`, the T/C (dose: 30.0 mg/kg/injection, schedule: Q01DX005 (ip), vehicle: Klucel (hydroxypropylcellulose) (HPC)) was 101 % of control and 94 % of control; the T/C under setting [11] is 99 % of control and 100 % of control and 97 % of control; the T/C under setting [12] was 96 % of control and 97 % of control.

Take `CC(C)(C)OC(=O)c1cccc(Br)c1`: the T/C by setting is: under setting [13], 101 % of control; under setting [14], 104 % of control; under setting [15], 105 % of control.

As to `C=C1C(=O)C23C(OC(=O)CCCCC)C1CCC2C12COC3(O)C(O)C1C(C)(C)CCC2O` (configuration not stated), the T/C runs as follows: (dose: 3.75 mg/kg/injection, schedule: Q01DX009 (ip), vehicle: saline with Tween-80) 102 % of control; (dose: 7.5 mg/kg/injection, schedule: Q01DX009 (ip), vehicle: saline with Tween-80) 105 % of control; (dose: 15.0 mg/kg/injection, schedule: Q01DX009 (ip), vehicle: saline with Tween-80) 113 % of control; (dose: 30.0 mg/kg/injection, schedule: Q01DX009 (ip), vehicle: saline with Tween-80) 104 % of control.

Turning to `C[N+]1(CSC(=O)c2ccccc2)CCCCC1`, the T/C is 110 % of control (dose: 3.12 mg/kg/injection, schedule: Q01DX009 (ip), vehicle: saline); 114 % of control (dose: 6.25 mg/kg/injection, schedule: Q01DX009 (ip), vehicle: saline); 115 % of control and 91 % of control (dose: 12.5 mg/kg/injection, schedule: Q01DX009 (ip), vehicle: saline with Tween-80); 107 % of control and 110 % of control (dose: 12.5 mg/kg/injection, schedule: Q01DX009 (ip), vehicle: saline); 100 % of control and 116 % of control (dose: 50.0 mg/kg/injection, schedule: Q01DX009 (ip), vehicle: saline with Tween-80).

Turning to `Cc1ccc(-c2nc3ccccc3c(=O)n2/N=C/c2ccc(O)cc2)cc1`, the T/C under setting [13] is 100 % of control, the T/C under setting [14] was 99 % of control and the T/C under setting [15] is 89 % of control.

`CCN(CC)CCNc1cc(Nc2ccc([N+](=O)[O-])cc2)ccc1OC`: the T/C is 108 % of control (dose: 12.5 mg/kg/injection, schedule: Q01DX005 (ip), vehicle: saline with Tween-80); 106 % of control (dose: 25.0 mg/kg/injection, schedule: Q01DX005 (ip), vehicle: saline with Tween-80); 99 % of control under setting [13]; 87 % of control under setting [15].

Turning to `CN(c1ccccc1)C1C2=C(OC(=O)C1(Cl)Cl)c1sc(-c3ccccc3)nc1CC2` (configuration not stated), the T/C was 93 % of control (dose: 12.5 mg/kg/injection, schedule: Q04DX002 (ip), vehicle: saline with Tween-80); 97 % of control (dose: 25.0 mg/kg/injection, schedule: Q04DX002 (ip), vehicle: saline with Tween-80); 93 % of control (dose: 50.0 mg/kg/injection, schedule: Q04DX002 (ip), vehicle: saline with Tween-80); 86 % of control (dose: 200.0 mg/kg/injection, schedule: Q04DX002 (ip), vehicle: saline with Tween-80).

On to `Cc1c(C2=NCC(C)S2)ccc(O)c1S(=O)(=O)O` (configuration not stated), for which the T/C runs as follows: under setting [7], 92 % of control; under setting [8], 92 % of control; under setting [9], 101 % of control.

Regarding `COc1ccc2c(c1OC)C(C(Cl)(Cl)Cl)N1CCc3cc4c(cc3C1=C2C=O)OCO4` (configuration not stated), the T/C reads like this: under setting [13], 98 % of control; under setting [14], 90 % of control; under setting [15], 90 % of control.
